Assay [1] relates to Rattus norvegicus. Briefly: Antithrombotic activity in Wistar rat assessed as reduction of thrombus weight at 5 umol/kg, iv. In kind it is functional.
The test system of assay [2] is Rattus norvegicus. Put plainly: Antithrombotic activity in Wistar rat assessed as thrombus weight at 5 umol/kg, po. In kind it is functional.
Assay [3] concerns Rattus norvegicus. Briefly: Antithrombotic activity in iv dosed Wistar rat assessed as reduction of thrombus weight. In kind it is functional, organism-based.
Assay [4] deals with Rattus norvegicus. Put plainly: Antithrombotic activity in Wistar rat assessed as thrombus weight at 20 mg/kg, po. In kind it is functional.

Values joined by “and” are separate entries in the source; they are usually repeats but may differ in a detail not shown here. Equal values may be shown once. Starred links: 1 amine or outer side, 2 acyl side, 3 side chain; linkers in the order of their positions; H or OH if unused. Non-standard residues stand in square brackets, D forms with d. Residues, ends and D or L forms follow the SMILES beside them. Groups on a side chain read outwards from the residue. βAsp = O=C(O)[C@H](CC(=O)[*:2])N[*:1]

The values below come from ChEMBL document CHEMBL1150414, “Synthesis, nano-scale assembly, and in vivo anti-thrombotic activity of novel short peptides containing L-Arg and L-Asp or L-Glu” (2008).

Turning to `N=C(N)NCCC[C@H](NC(=O)C[C@H](N)C(=O)N[C@@H](CCCNC(=N)N)C(=O)N[C@@H](CC(=O)O)C(=O)O)C(=O)N[C@@H](CC(=O)O)C(=O)O` (H-Asp([Arg-Asp])-Arg-Asp-OH), in assay [1], the Activity is 25.12 mg and 15%.
Take `N=C(N)NCCC[C@H](NC(=O)C[C@H](NC(=O)C[C@H](N)C(=O)N[C@@H](CC(=O)N[C@@H](CCCNC(=N)N)C(=O)O)C(=O)O)C(=O)O)C(=O)O` (H-Asp([βAsp-Arg])-[βAsp]-Arg-OH): the results for the Activity in assay [2] and in assay [3] were 23.2 mg and “Dose-dependent effect”, respectively.
For `N=C(N)NCCC[C@H](NC(=O)CC[C@H](N)C(=O)N[C@@H](CCCNC(=N)N)C(=O)N[C@@H](CC(=O)O)C(=O)O)C(=O)N[C@@H](CC(=O)O)C(=O)O` (H-Glu([Arg-Asp])-Arg-Asp-OH), in assay [3], the Activity entry is “Dose-dependent effect”.
With `N=C(N)NCCC[C@H](NC(=O)C[C@H](NC(=O)CC[C@H](N)C(=O)N[C@@H](CC(=O)O)C(=O)N[C@@H](CCCNC(=N)N)C(=O)O)C(=O)O)C(=O)O` (H-Glu([βAsp-Arg])-Asp-Arg-OH), the Activity entry in assay [3] was “Dose-dependent effect”.
For the compound `CC(=O)Oc1ccccc1C(=O)O` [ASPIRIN], the Activity in assay [4] was determined as 8.5 mg.
